Source: US20190000790A1, “PPAR-GAMMA ACTIVATORS AND THEIR THE[…]” (THERIAC B[…]., priority 2015, published 2019)

Experiments:
CD4+ T cells = assay: Treatment of CD4+ T cells from healthy volunteers and Systemic Lupus Erythematosus patients; format: cell-based, human; details: preliminary data, FIG. 6; CD4+ T cells stimulated with α-CD3/CD28 beads
Excerpt: FIG. 6 illustrates BZN+PAA (HIP-002) treatment of T cells derived from healthy volunteer (HV) and Systemic Lupus Erythematous (SLE) patients.
Next, we examined if BZN+PAA can improve immune function of T lymphocytes in Systemic Lupus Erythematosus (SLE). […] Dilutions effects of the BZN+PAA drug (HIP-002) are shown. (FIG. 6A). CD4+ T cells were stimulated with α-CD3/CD28 beads for 4 (red) or 5 (black) days and cytotoxicity determined by Live/Dead staining. (FIG. 6B) CD4+ T cells were stimulated as in (FIG. 6A) for 5 days, and the surface expression of CD154 and CD25 measured by FACS analysis. (FIG. 6C) CD4+ T cells were stimulated as in (FIG. 6A), and proliferation measured by dilution of the CellTrace Violet dye. White bars: HV; n=2-3. Gray bars: SLE patients; n=3-4. * p<0.05, ** p<0.01, *** p<0.0001.

human PPARγ = assay: Reporter gene bioassay of PPAR transcriptional activity (Gal4-hPPARγ / UAStkLuc luciferase in 293 cells); format: cell-based; details: each compound alone, 16 h, FIGS. 1A and B
Experimental: FIG. 1A, 1B illustrate a transcriptional activation of PPARγ by BNZ and PAA. Luciferase assay was performed in 293 cells transfected with Gal4-hPPARγ and UAStkLuc reporter construct and treated for 16 h with respective compounds. Data are expressed as fold change ±SEM compared to untreated cells set at 1.0.*, P<0.05; **, P<0.001.
FIG. 1C illustrates the additive effect of SB and PAA on transcriptional activity of PPARγ. Luciferase assay was performed in 293 cells transfected with Gal4-hPPARγ and UAStkLuc reporter construct and treated 10 mM of each compound for 16 h. Data are expressed as fold change ±SEM compared to untreated cells set at 1.0.*, P<0.001.
Human embryonic kidney 293 cells were seeded in DMEM supplemented with 5% charcoal dextran-treated FBS and transfected with Gal4 DBD fusion of PPAR isoforms and UAStkLuc reporter as described (12). Cells were then treated for 16 hrs and harvested for luciferase activity. Luciferase values were normalized for transfection efficiency to β-galactosidase activity and expressed as relative fold response compared to untreated cells. Data are derived from at least four independent experiments performed in triplicates. […]

With `O=C([O-])c1ccccc1.[Na+]` [BNZ, benzoate] the “effect on growth and survival of T lymphocytes” value (CD4+ T cells) was “beneficial effect on the growth and survival of these cells” and the “PPARγ activity (transcriptional activation, luciferase)” value (human PPARγ) was “significantly potent in increasing PPARγ activity”.
